Data on 3 molecules can be found in patent US9833445B2, “5-deutero-2,4-thiazolidinedione derivatives and compositions comprising and methods of using the same” (DeuteRx, LLC, priority 2013, dated 2017).

The nature of series [1]: In vitro stability (D/H exchange, enantiomerization, degradation) in human plasma. Format: in vitro ADME. The settings on record: 37° C.; for half-life: human, plasma (K3EDTA), calculated half-life. The procedure: (§1) (+)-5-({p-[2-(5-ethylpyridin-2-yl)-2-oxoethoxy]phenyl}methyl)-1,3-thiazolidine-2,4-dione, (−)-5-({p-[2-(5-ethylpyridin-2-yl)-2-oxoethoxy]phenyl}methyl)-1,3-thiazolidine-2,4-dione, rac-5-({p-[2-(5-ethylpyridin-2-yl)-2-oxoethoxy]phenyl}methyl)-(5-^2H))-1,3-thiazolidine-2,4-dione (>98% deuterium at C-5 of the 1,3-thiazolidine-2,4-dione moiety; 50:50 racemic mixture of (+)- and (−)-deuterated enantiomers) were incubated in CD-1 mouse plasma (K3EDTA as anticoagulant) or human plasma (K3EDTA as anticoagulant) at 37° C. in duplicates. Aliquots (50 μL) were removed at t=0, 0.0833, 0.25, 0.5, 1, 2, 4, 8, and 16 hours and added to micro centrifuge tubes containing 10 μL of 5% w/v zinc sulfate heptahydrate in water. Samples were frozen and stored until the study was complete. After thawing on ice, 10 μL of internal standard (ISTD) spiking solution (d4-pioglitazone in acetonitrile/water 1:1) were added followed by 250 μL of methyl t-butyl ether (MTBE). A 100 μL aliquot of the organic layer was evaporated after homogeneization and reconstituted in 100 μL of 95:5 acetonitrile/0.1% formic acid in water (v/v).
(§2) The samples were analyzed semi-quantitatively by LC/MS-MS with elution on a chiral column (Daicel ChiralPak ID-3) for the separation of enantiomers (isocratic method of 5:95 v/v 0.1% formic acid in water and acetonitrile). Peak areas for the protonated and deuterated enantiomers were calculated and normalized to the area of the ISTD. Peak areas for the deuterated enantiomers (+)-5-({p-[2-(5-ethylpyridin-2-yl)-2-oxoethoxy]phenyl}methyl)-(5-2H)-1,3-thiazolidine-2,4-dione and (−)-5-({p-[2-(5-ethylpyridin-2-yl)-2-oxoethoxy]phenyl}methyl)-(5-^2H)-1,3-thiazolidine-2,4-dione were further corrected for the isotopic peak of the corresponding protonated enantiomer, (+)- and (−)-5-({p-[2-(5-ethylpyridin-2-yl)-2-oxoethoxy]phenyl}methyl)-1,3-thiazolidine-2,4-dione respectively, if present. Corrected data were analyzed and plotted using Microsoft Excel 2013 (Microsoft Corp, Redmond, Wash.) and the Excel Solver.
(§3) Scheme 3 illustrates the possible reactions in a solution of a deuterated racemate. The deuterium at the chiral center of both enantiomers, d+ and d−, can be depleted by D/H exchange to give both protonated enantiomers, h+ and h− with rate constants kD++, kD+−, kD−+, kD−. At the same time, the protonated enantiomers h+ and h−, can exchange, with enantiomerization rate constants k+− and k−+. All four compounds can also degrade with potentially different degradation rate constants kh+d, kh−d, kd+d, kd−d for enantiomers h+, h−, d+, and d−, respectively.
(§4) Human plasma stability data and mouse plasma stability data were analyzed independently. Concurrent analysis of the data for h+, h−, and deuterated racemate was performed. Calculated concentrations were obtained through numerical approximation of differential equations (1) and (2) for the stability studies of h+ and h- and equations (3) to (6) for the stability study of deuterated racemate (50:50 d+:d−) by the Euler method (equation (7)). The step between calculated time points was minimized in order to minimize the local error (proportional to the square of the step size) and the global error (proportional to the step size). […] Data analysis was performed in Microsoft Excel 2013, using the Solver Generalized Reduced Gradient Nonlinear method with central derivatives to minimize the sum of sums of weighted Δ^2, square of difference between ISTD-normalized experimental data and calculated value, divided by the calculated value.
(§5) [formula] [formula] [formula] [formula] where [h+], [h−], [d+], [d−] are the concentrations on both protonated and deuterated enantiomers, k+− and k−+ are the rate constants for the enantiomerization reactions h+ to h− and h− to h+ respectively, kD++, kD+−, kD−+, and kD− are the rate constants for the D/H exchange reactions d+ or d− to h+ or h−, and kd is the rate constant for the degradation of all four compounds. […]

The nature of series [2]: In vitro stability (D/H exchange, enantiomerization, degradation) in CD-1 mouse plasma. In kind it is in vitro ADME. Particulars: 37° C.; for half-life: CD-1, mouse, plasma (K3EDTA), calculated half-life. The procedure:
as §1, §2, §3, §4, §5

Where [3] appears, read: read-out: t1/2 degradation (converted).
Where [4] appears, read: read-out: t1/2 enantiomerization +− (h+ to h−) (converted).
Where [5] appears, read: read-out: t1/2 enantiomerization −+ (h− to h+) (converted).

With `[2H]C1(Cc2ccc(OCC(=O)c3ccc(CC)cn3)cc2)SC(=O)NC1=O` (racemic) [d-rac, rac-5-({p-[2-(5-ethylpyridin-2-yl)-2-oxoethoxy]phenyl}methyl)-(5-^2H)-1,3-thiazolidine-2,4-dione], the “k d (rate constant, degradation; assumed equal for all four compounds)” value amounted to 0.00377 h⁻¹ in series [1] (fitted to Equations 1 to 6) and 0.0153 h⁻¹ in series [2] (fitted to Equations 1 to 6). Further, the half-life is 7.67 days in series [1] (setting [3]) and 2720 min in series [2] (setting [3]).

Regarding `CCc1ccc(C(=O)COc2ccc(CC3SC(=O)NC3=O)cc2)nc1` (single isomer, unassigned; (+)) [h+, (+)-5-({p-[2-(5-ethylpyridin-2-yl)-2-oxoethoxy]phenyl}methyl)-1,3-thiazolidine-2,4-dione], the “k +− (rate constant, enantiomerization h+ to h−)” value is 0.308 h⁻¹ in series [1] (fitted to Equations 1 to 6) and 0.504 h⁻¹ in series [2] (fitted to Equations 1 to 6). For the same molecule, the results for the “k d (rate constant, degradation; assumed equal for all four compounds)” value in series [1] (fitted to Equations 1 to 6) and in series [2] (fitted to Equations 1 to 6) were 0.00377 h⁻¹ and 0.0153 h⁻¹, respectively. In addition, the half-life in series [1] (setting [3]) is 7.67 days; in series [1] (setting [4]), 0.0917 days; in series [2] (setting [3]), 2720 min; in series [2] (setting [4]) it was 84 min.

As for `CCc1ccc(C(=O)COc2ccc(CC3SC(=O)NC3=O)cc2)nc1` (single isomer, unassigned; (-)) [h−, (−)-5-({p-[2-(5-ethylpyridin-2-yl)-2-oxoethoxy]phenyl}methyl)-1,3-thiazolidine-2,4-dione], the “k −+ (rate constant, enantiomerization h− to h+)” value stood at 0.359 h⁻¹ in series [1] (fitted to Equations 1 to 6) and 0.594 h⁻¹ in series [2] (fitted to Equations 1 to 6). The half-life in series [1] (setting [5]) was 0.0792 days; in series [2] (setting [5]), 72 min.
